From ChEMBL document CHEMBL2203178, “Design and one-pot synthesis of new 7-acyl camptothecin derivatives as potent cytotoxic agents” (Bioorg Med Chem Lett, 2012)
pIC50: −log10 of the molar value.

Tests used:
Assay type in all cases: functional, cell-based
[1] = test system: KB; test: Cytotoxicity against human KB cells by SRB assay
[2] = test system: DU-145; test: Cytotoxicity against human DU145 cells by SRB assay
[3] = Cytotoxicity against human KBVIN cells by SRB assay
[4] = test system: A549; test: Cytotoxicity against human A549 cells by SRB assay

Row | Structure (SMILES) | pIC50 [1] | pIC50 [2] | pIC50 [3] | pIC50 [4]
1 | CC[C@@]1(O)C(=O)OCc2c1cc1n(c2=O)Cc2c-1nc1ccccc1c2C(=O)c1cc(OC)c(OC)c(OC)c1 | 5.50 | 5.68 | 5.93 | 6.00
2 | CC[C@@]1(O)C(=O)OCc2c1cc1n(c2=O)Cc2c-1nc1ccccc1c2C(=O)c1cc(OC)ccc1OC | 5.53 | 5.69 | 5.65 | 6.00
3 | CC[C@@]1(O)C(=O)OCc2c1cc1n(c2=O)Cc2c-1nc1ccccc1c2C(=O)c1ccc(C)c(O)c1 | 5.76 | 5.81 | 5.94 | 5.99
4 | CC[C@@]1(O)C(=O)OCc2c1cc1n(c2=O)Cc2c-1nc1ccccc1c2C(=O)c1ccc(C)c(C)c1 | 5.60 | 5.77 | 5.34 | 6.00
5 | CC[C@@]1(O)C(=O)OCc2c1cc1n(c2=O)Cc2c-1nc1ccccc1c2C(=O)c1ccc(O)cc1 | 4.90 | 5.52 | 5.75 | 5.60
6 | CC[C@@]1(O)C(=O)OCc2c1cc1n(c2=O)Cc2c-1nc1ccccc1c2C(=O)c1ccc2c(c1)OCO2 | 4.93 | 5.59 | 5.75 | 5.95
7 | CC[C@@]1(O)C(=O)OCc2c1cc1n(c2=O)Cc2c-1nc1ccccc1c2C(=O)c1ccc(OC)cc1 | 5.32 | 5.79 | 5.50 | 6.04
8 | CC[C@@]1(O)C(=O)OCc2c1cc1n(c2=O)Cc2c-1nc1ccccc1c2C(=O)c1ccc(Cl)cc1 | 5.51 | 5.77 | 5.95 | 6.02
9 | CC[C@@]1(O)C(=O)OCc2c1cc1n(c2=O)Cc2c-1nc1ccccc1c2C(=O)c1ccccc1 | 4.88 | 4.96 | 4.92 | 4.96
10 | CC[C@@]1(O)C(=O)OCc2c1cc1n(c2=O)Cc2c-1nc1ccccc1c2C(=O)c1ccoc1 | 5.56 | 5.70 | 5.74 | 5.69
11 | CCC(=O)c1c2c(nc3ccccc13)-c1cc3c(c(=O)n1C2)COC(=O)[C@]3(O)CC | 7.23 | 7.05 | 7.54 | 7.50
12 | CC[C@@]1(O)C(=O)OCc2c1cc1n(c2=O)Cc2c-1nc1ccccc1c2C(C)=O | 7.63 | 7.40 | 6.88 | 7.81
13 | CC[C@@]1(O)C(=O)OCc2c1cc1n(c2=O)Cc2cc3ccccc3nc2-1 [CAMPTOTHECIN] |  | 7.54 |  | 
14 | CCc1c2c(nc3ccc(OC(=O)N4CCC(N5CCCCC5)CC4)cc13)-c1cc3c(c(=O)n1C2)COC(=O)[C@]3(O)CC [IRINOTECAN] |  | 5.03 | < 4.70 | 
